Measured values as given in patent publication US4089965A, “Thiazolylphenylguanidines as antirhinovirus agents” (American Cyanamid Company, priority 1977, dated 1978).
≈ marks a conversion by molar mass, not a printed value.

Experiments:
[1] = tested on: Rhinovirus Serotype 2; test: Plaque assay, minimal inhibitory concentration; assay type: cell-based; conditions: Enterovirus, inhibiting virus plaque formation by 50%
[2] = tested on: Rhinovirus strain 14; test: Protection of tissue from cytopathic effects (plaque inhibition, filter paper disc or agar overlay); conditions: 33°, 3 to 5 days
[3] = tested on: Rhinovirus Serotype 50; test: Plaque assay, minimal inhibitory concentration; assay type: cell-based; conditions: Enterovirus; HeLa Cells; inhibiting virus plaque formation by 50%
[4] = tested on: Rhinovirus Serotype 5; test: Plaque assay, minimal inhibitory concentration; assay type: cell-based; conditions: Enterovirus; HeLa Cells; inhibiting virus plaque formation by 50%

Question: Which results are given for `N=C(Nc1ccccc1)Nc1nc(-c2ccccc2)cs1` [1-(4-phenyl-2-thiazolyl)-3-phenylguanidine]?
Answer: IC50 ([1]; L132, L-132 Cells): 0.4 to 0.8 µg/mL (≈ 1.36 to 2.72 µM); IC50 ([1]; Detroit-6 Cells): 0.4 µg/mL (≈ 1.36 µM); IC50 ([1]; HeLa Cells): 0.4 to 0.8 µg/mL (≈ 1.36 to 2.72 µM); Protection of tissue from destruction by virus [2]: +; IC50 [3]: 0.2 to 0.4 µg/mL (≈ 0.679 to 1.36 µM); IC50 [4]: 0.4 to 0.8 µg/mL (≈ 1.36 to 2.72 µM)
